Results: ChEMBL document CHEMBL1201862, “PubChem BioAssay data set” (2004)
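How tested: cells in 96-well plates exposed to compound for 48 hours at five concentrations. GI50 is the concentration that inhibits growth by half.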 Activity calls are given as the source filed them. Rule as the data show it: active = GI50 up to about 1.1 µM and inactive = higher.

Columns and labels:
Experiment in all cases: NCI-60 cell line screen, 48 h
[1] = system: SK-MEL-28
[2] = system: NCI-H23
[3] = system: SF-295
[4] = system: OVCAR-8
[5] = system: HCC 2998
[6] = system: MOLT-4
[7] = system: UACC-257
[8] = system: SW-620
[9] = system: TK-10
[10] = system: LOX IMVI
[11] = system: U-251
[12] = system: M14
[13] = system: UO-31
[14] = system: Malme-3M
[15] = system: COLO 205
[16] = system: SK-MEL-2

| Compound | GI50 [1] | GI50 [2] | GI50 [3] | GI50 [4] | GI50 [5] | GI50 [6] | GI50 [7] | GI50 [8] | GI50 [9] | GI50 [10] | GI50 [11] | GI50 [12] | GI50 [13] | GI50 [14] | GI50 [15] | GI50 [16] |
| --- | --- | --- | --- | --- | --- | --- | --- | --- | --- | --- | --- | --- | --- | --- | --- | --- |
| O=C(CN(Cc1ccccc1)Cc1ccccc1)N1CCc2c([nH]c3ccccc23)C1c1cccnc1 (stereo not drawn) | 21.2 µM (inactive) | 5.41 µM (inactive) | 6.64 µM (inactive) | 6.1 µM (inactive) | 13.2 µM (inactive) | 2.26 µM (inactive) | 13.2 µM (inactive) | 5.65 µM (inactive) | 27.5 µM (inactive) | 7.73 µM (inactive) | 6.37 µM (inactive) | 3.66 µM (inactive) | 2.63 µM (inactive) | – | – | – |
| COc1cccc(-c2cc(O)c3cc(OC)c(OC)cc3n2)c1 | > 100 µM (inactive) | 41.1 µM (inactive) | – | 45.2 µM (inactive) | 87.1 µM (inactive) | 40.6 µM (inactive) | 28.9 µM (inactive) | 32 µM (inactive) | 51.6 µM (inactive) | 64.7 µM (inactive) | 60.5 µM (inactive) | 37.9 µM (inactive) | 41.6 µM (inactive) | 35.7 µM (inactive) | 39.3 µM (inactive) | – |
| O=C1C(c2ccccc2)=C(c2ccccc2)[C@H](c2ccccc2)[C@]1(Cc1nnn(-c2ccc([N+](=O)[O-])cc2)c1N1CCOCC1)c1ccccc1 | > 37.5 µM (inactive) | > 37.5 µM (inactive) | 35.6 µM (inactive) | > 37.5 µM (inactive) | > 37.5 µM (inactive) | 12.1 µM (inactive) | > 37.5 µM (inactive) | > 37.5 µM (inactive) | > 37.5 µM (inactive) | 24.5 µM (inactive) | > 37.5 µM (inactive) | > 37.5 µM (inactive) | – | – | > 37.5 µM (inactive) | – |
| Cc1cc(C(=O)NCCN(C)C)c2nc3ccccc3nc2c1 | 5.05 µM (inactive) | 5.27 µM (inactive) | 4.55 µM (inactive) | 4.81 µM (inactive) | 6.38 µM (inactive) | 0.128 µM (active) | 4.16 µM (inactive) | 1.97 µM (inactive) | 4.42 µM (inactive) | 2.22 µM (inactive) | 5.82 µM (inactive) | 4.98 µM (inactive) | – | 3.21 µM (inactive) | 3.08 µM (inactive) | 4.33 µM (inactive) |
| CC1=CC(=O)NP(=O)(Oc2ccc(Cl)cc2)N1 (stereo not drawn) | > 100 µM (inactive) | > 100 µM (inactive) | > 100 µM (inactive) | > 100 µM (inactive) | – | > 100 µM (inactive) | > 100 µM (inactive) | > 100 µM (inactive) | > 100 µM (inactive) | > 100 µM (inactive) | > 100 µM (inactive) | > 100 µM (inactive) | > 100 µM (inactive) | > 100 µM (inactive) | > 100 µM (inactive) | > 100 µM (inactive) |
| O=[N+]([O-])c1cccc(C2SCc3nc4ccccc4n32)c1 (stereo not drawn) | > 100 µM (inactive) | 64.4 µM (inactive) | 73.5 µM (inactive) | > 100 µM (inactive) | – | 59.4 µM (inactive) | 39.3 µM (inactive) | > 100 µM (inactive) | > 100 µM (inactive) | 88.3 µM (inactive) | > 100 µM (inactive) | – | 31.6 µM (inactive) | 54.1 µM (inactive) | > 100 µM (inactive) | > 100 µM (inactive) |
| CC(C)C(/C=C/c1ccccc1)=N\NC(=O)N/N=C(/C=C/c1ccccc1)C(C)C | 74 µM (inactive) | 53.7 µM (inactive) | 39.9 µM (inactive) | 28.8 µM (inactive) | 16 µM (inactive) | 16.4 µM (inactive) | 44 µM (inactive) | 37 µM (inactive) | 33.8 µM (inactive) | 32.4 µM (inactive) | 32.3 µM (inactive) | 39.4 µM (inactive) | 14.7 µM (inactive) | – | 18.4 µM (inactive) | 19.9 µM (inactive) |
| COCC(=O)CP(=O)(OC)OC | > 100 µM (inactive) | > 100 µM (inactive) | > 100 µM (inactive) | > 100 µM (inactive) | – | > 100 µM (inactive) | > 100 µM (inactive) | > 100 µM (inactive) | > 100 µM (inactive) | > 100 µM (inactive) | > 100 µM (inactive) | > 100 µM (inactive) | > 100 µM (inactive) | > 100 µM (inactive) | > 100 µM (inactive) | > 100 µM (inactive) |
| N/N=C1\C(=O)N(Cc2ccccc2)C(=O)C1C(=O)NCc1ccccc1 (stereo not drawn) | > 100 µM (inactive) | > 100 µM (inactive) | > 100 µM (inactive) | > 100 µM (inactive) | > 100 µM (inactive) | > 100 µM (inactive) | > 100 µM (inactive) | > 100 µM (inactive) | > 100 µM (inactive) | – | > 100 µM (inactive) | > 100 µM (inactive) | > 100 µM (inactive) | > 100 µM (inactive) | > 100 µM (inactive) | > 100 µM (inactive) |
| Cc1cccc(CC(C)(C)C)c1NC(=O)C(=O)C(C(=O)c1ccc2ccccc2c1)C1OC(=O)c2ccccc21 (stereo not drawn) | 5.58 µM (inactive) | 6.35 µM (inactive) | 4.55 µM (inactive) | 6.58 µM (inactive) | 12.1 µM (inactive) | – | 12 µM (inactive) | 6.78 µM (inactive) | – | 11.5 µM (inactive) | 4.79 µM (inactive) | 27.2 µM (inactive) | 16 µM (inactive) | 10.8 µM (inactive) | 15.4 µM (inactive) | 14.4 µM (inactive) |
| C=C1Cc2cc(OC)c(OC)c(OC)c2-c2ccc(SC)c(=O)cc21 | < 0.01 µM (active) | < 0.01 µM (active) | < 0.01 µM (active) | < 0.01 µM (active) | < 0.01 µM (active) | < 0.01 µM (active) | 0.361 µM (active) | < 0.01 µM (active) | 0.916 µM (active) | < 0.01 µM (active) | < 0.01 µM (active) | < 0.01 µM (active) | – | < 0.01 µM (active) | < 0.01 µM (active) | < 0.01 µM (active) |
| N#CC(NNC(=O)Cc1ccccc1)c1ccc([N+](=O)[O-])cc1 (stereo not drawn) | > 100 µM (inactive) | > 100 µM (inactive) | > 100 µM (inactive) | > 100 µM (inactive) | – | > 100 µM (inactive) | > 100 µM (inactive) | > 100 µM (inactive) | > 100 µM (inactive) | > 100 µM (inactive) | > 100 µM (inactive) | > 100 µM (inactive) | > 100 µM (inactive) | > 100 µM (inactive) | > 100 µM (inactive) | > 100 µM (inactive) |
| CC1=C(C(=O)NCc2ccccc2)C(c2ccc([N+](=O)[O-])cc2)C(C(=O)NCc2ccccc2)=C(C)N1 | 37.7 µM (inactive) | 39.7 µM (inactive) | 37.1 µM (inactive) | 39.8 µM (inactive) | 39.8 µM (inactive) | – | 38.6 µM (inactive) | 63.7 µM (inactive) | 42.8 µM (inactive) | 18.2 µM (inactive) | 40.3 µM (inactive) | 21.8 µM (inactive) | 20.6 µM (inactive) | 67.5 µM (inactive) | 29.2 µM (inactive) | 30.8 µM (inactive) |
